System: 5HT2A sensor
Assay: 5HT2A sensor assay, agonist mode (sLight1.3s HEK293T stable line)
Assay type: cell-based
Conditions: 100 nM compound; percent relative to 5-HT at 100 uM
How it was run: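 Agonist mode in HEK293T cells stably expressing the sLight1.3 5HT2A sensor, washed into HBSS; compounds at final 100 μM, 10 μM and 100 nM (0.1% DMSO), triplicate wells. Membrane fluorescence (ex 460, em 512-542 nm) imaged before and after addition; dFF=(Fsat−Fapo)/Fapo, expressed as percent activation (DMSO=0, 5HT=100).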

Row | Structure (SMILES) | 5HT2A Agonist mean @ 100 nM (%)
1 | COc1cc(C)c2c(ccn2C[C@@H](C)N(C)C)c1 [Example 65, (R)-1-(5-methoxy-7-methyl-1H-indol-1-yl)-N,N-dimethylpropan-2-amine] | B (does not activate 5HT2A sensor assay in agonist mode)
2 | C[C@H](Cn1ccc2c(F)c(F)ccc21)N(C)C [Example 67, (R)-1-(4,5-difluoro-1H-indol-1-yl)-N,N-dimethylpropan-2-amine] | B (does not activate 5HT2A sensor assay in agonist mode)
3 | C[C@H](Cn1ccc2cc(F)c(F)cc21)N(C)C [Example 68, (R)-1-(5,6-difluoro-1H-indol-1-yl)-N,N-dimethylpropan-2-amine] | B (does not activate 5HT2A sensor assay in agonist mode)
4 | C[C@H](Cn1ccc2cc(F)cc(F)c21)N(C)C [Example 69, (R)-1-(5,7-difluoro-1H-indol-1-yl)-N,N-dimethylpropan-2-amine] | B (does not activate 5HT2A sensor assay in agonist mode)

Same assay, conditions: 10 μM compound; percent relative to 5-HT at 100 uM

Row | Structure (SMILES) | 5HT2A Agonist mean @ 10 μM (%)
5 | COc1cc(C)c2c(ccn2C[C@@H](C)N(C)C)c1 [Example 65, (R)-1-(5-methoxy-7-methyl-1H-indol-1-yl)-N,N-dimethylpropan-2-amine] | B (does not activate 5HT2A sensor assay in agonist mode)
6 | C[C@H](Cn1ccc2c(F)c(F)ccc21)N(C)C [Example 67, (R)-1-(4,5-difluoro-1H-indol-1-yl)-N,N-dimethylpropan-2-amine] | B (does not activate 5HT2A sensor assay in agonist mode)
7 | C[C@H](Cn1ccc2cc(F)c(F)cc21)N(C)C [Example 68, (R)-1-(5,6-difluoro-1H-indol-1-yl)-N,N-dimethylpropan-2-amine] | B (does not activate 5HT2A sensor assay in agonist mode)
8 | C[C@H](Cn1ccc2cc(F)cc(F)c21)N(C)C [Example 69, (R)-1-(5,7-difluoro-1H-indol-1-yl)-N,N-dimethylpropan-2-amine] | B (does not activate 5HT2A sensor assay in agonist mode)

Same assay, conditions: 100 μM compound; percent relative to 5-HT at 100 uM

Row | Structure (SMILES) | 5HT2A Agonist mean @ 100 μM (%)
9 | COc1cc(C)c2c(ccn2C[C@@H](C)N(C)C)c1 [Example 65, (R)-1-(5-methoxy-7-methyl-1H-indol-1-yl)-N,N-dimethylpropan-2-amine] | B (does not activate 5HT2A sensor assay in agonist mode)
10 | C[C@H](Cn1ccc2c(F)c(F)ccc21)N(C)C [Example 67, (R)-1-(4,5-difluoro-1H-indol-1-yl)-N,N-dimethylpropan-2-amine] | B (does not activate 5HT2A sensor assay in agonist mode)
11 | C[C@H](Cn1ccc2cc(F)c(F)cc21)N(C)C [Example 68, (R)-1-(5,6-difluoro-1H-indol-1-yl)-N,N-dimethylpropan-2-amine] | A (activates 5HT2A sensor assay in agonist mode)
12 | C[C@H](Cn1ccc2cc(F)cc(F)c21)N(C)C [Example 69, (R)-1-(5,7-difluoro-1H-indol-1-yl)-N,N-dimethylpropan-2-amine] | A (activates 5HT2A sensor assay in agonist mode)

System: 5HT2A sensor
Assay: 5HT2A sensor assay, antagonist mode (sLight1.3s HEK293T stable line)
Assay type: cell-based
Conditions: 100 nM compound; relative to 5-HT at 100 nM
How it was run: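 Inactivation score is computed from membrane dFF as (dFF(compound+5HT)−dFF(5HT))/dFF(5HT), with HBSS-only fluorescence as Fapo. Final concentrations: 5-HT 100 nM added first, then compound at 100 nM, 10 μM or 100 μM in 0.1% DMSO. Triplicates; FITC imaging, 5 fields per well.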

Row | Structure (SMILES) | 5HT2A Antagonist mean @ 100 nM (%)
13 | COc1cc(C)c2c(ccn2C[C@@H](C)N(C)C)c1 [Example 65, (R)-1-(5-methoxy-7-methyl-1H-indol-1-yl)-N,N-dimethylpropan-2-amine] | C (inhibits 5HT response by <75%)
14 | C[C@H](Cn1ccc2c(F)c(F)ccc21)N(C)C [Example 67, (R)-1-(4,5-difluoro-1H-indol-1-yl)-N,N-dimethylpropan-2-amine] | A (inhibits 5HT response by >100%)
15 | C[C@H](Cn1ccc2cc(F)c(F)cc21)N(C)C [Example 68, (R)-1-(5,6-difluoro-1H-indol-1-yl)-N,N-dimethylpropan-2-amine] | B (inhibits 5HT response by 75% to 100%)
16 | C[C@H](Cn1ccc2cc(F)cc(F)c21)N(C)C [Example 69, (R)-1-(5,7-difluoro-1H-indol-1-yl)-N,N-dimethylpropan-2-amine] | B (inhibits 5HT response by 75% to 100%)

Same assay, conditions: 10 μM compound; relative to 5-HT at 100 nM

Row | Structure (SMILES) | 5HT2A Antagonist mean @ 10 μM (%)
17 | COc1cc(C)c2c(ccn2C[C@@H](C)N(C)C)c1 [Example 65, (R)-1-(5-methoxy-7-methyl-1H-indol-1-yl)-N,N-dimethylpropan-2-amine] | A (inhibits 5HT response by >100%)
18 | C[C@H](Cn1ccc2c(F)c(F)ccc21)N(C)C [Example 67, (R)-1-(4,5-difluoro-1H-indol-1-yl)-N,N-dimethylpropan-2-amine] | A (inhibits 5HT response by >100%)
19 | C[C@H](Cn1ccc2cc(F)c(F)cc21)N(C)C [Example 68, (R)-1-(5,6-difluoro-1H-indol-1-yl)-N,N-dimethylpropan-2-amine] | A (inhibits 5HT response by >100%)
20 | C[C@H](Cn1ccc2cc(F)cc(F)c21)N(C)C [Example 69, (R)-1-(5,7-difluoro-1H-indol-1-yl)-N,N-dimethylpropan-2-amine] | B (inhibits 5HT response by 75% to 100%)

Same assay, conditions: 100 μM compound; relative to 5-HT at 100 nM

Row | Structure (SMILES) | 5HT2A Antagonist mean @ 100 μM (%)
21 | COc1cc(C)c2c(ccn2C[C@@H](C)N(C)C)c1 [Example 65, (R)-1-(5-methoxy-7-methyl-1H-indol-1-yl)-N,N-dimethylpropan-2-amine] | A (inhibits 5HT response by >100%)
22 | C[C@H](Cn1ccc2c(F)c(F)ccc21)N(C)C [Example 67, (R)-1-(4,5-difluoro-1H-indol-1-yl)-N,N-dimethylpropan-2-amine] | A (inhibits 5HT response by >100%)
23 | C[C@H](Cn1ccc2cc(F)c(F)cc21)N(C)C [Example 68, (R)-1-(5,6-difluoro-1H-indol-1-yl)-N,N-dimethylpropan-2-amine] | A (inhibits 5HT response by >100%)
24 | C[C@H](Cn1ccc2cc(F)cc(F)c21)N(C)C [Example 69, (R)-1-(5,7-difluoro-1H-indol-1-yl)-N,N-dimethylpropan-2-amine] | B (inhibits 5HT response by 75% to 100%)

Target: T1, 5HT2A (Homo sapiens, UniProt P28223)
T1 construct: expressed in transfected cells
Assay: Calcium flux assay (Calcium secondary messenger pathway)
Assay type: cell-based
Conditions: agonist mode
Text: Calcium Flux Assay. Calcium Secondary Messenger Pathway. The Calcium No Wash^PLUS assay monitors the activation of a GPCR (e.g., 5HT2A) via Gq secondary messenger signaling in a live cell, non-imaging assay format. Calcium mobilization in PathHunter® cell lines or other cell lines stably expressing Gq-coupled GPCRs (e.g., 5HT2A) is monitored using a calcium-sensitive dye that is loaded into cells. GPCR (e.g., 5HT2A) activation by a compound results in the release of calcium from intracellular stores and an increase in dye fluorescence that is measured in real-time. In some embodiments, the ability of a compound of the present invention to modulate 5-HT2A function is determined using a calcium flux assay. In some embodiments, a compound of the present invention activates a calcium flux assay.
Calcium Secondary Messenger Pathway. Cell lines were expanded from freezer stocks according to standard procedures. Cells were seeded in a total volume of 20 μL into black-walled, clear-bottom, Poly-D-lysine coated 384-well microplates and incubated at 37° C. for the appropriate time prior to testing. Assays were performed in 1× Dye Loading Buffer consisting of 1× Dye, 1× Additive A and 2.5 mM Probenecid in HBSS/20 mM Hepes. Probenicid was prepared fresh. Cells were loaded with dye prior to testing. Media was aspirated from cells and replaced with 20 μL Dye Loading Buffer. Cells were incubated for 30-60 minutes at 37° C.
For agonist determination, cells were incubated with sample to induce response. After dye loading, cells were removed from the incubator and 10 μL HBSS/20 mM Hepes was added. 3× vehicle was included in the buffer when performing agonist dose curves to define the EC80 for subsequent antagonist assays. Cells were incubated for 30 minutes at room temperature in the dark to equilibrate plate temperature. Intermediate dilution of sample stocks was performed to generate 4× sample in assay buffer. Compound agonist activity was measured on a FLIPR Tetra (MDS). Calcium mobilization was monitored for 2 minutes and 10 μL 4× sample in HBSS/20 mM Hepes was added to the cells 5 seconds into the assay.
Compound activity was analyzed using CBIS data analysis suite (ChemInnovation, CA). For agonist mode assays, percentage activity is calculated using the following formula: % Activity=100%×(mean RFU of test sample−mean RFU of vehicle control)/(mean MAX RFU control ligand−mean RFU of vehicle control).

T1 sequence (P28223 whole entry): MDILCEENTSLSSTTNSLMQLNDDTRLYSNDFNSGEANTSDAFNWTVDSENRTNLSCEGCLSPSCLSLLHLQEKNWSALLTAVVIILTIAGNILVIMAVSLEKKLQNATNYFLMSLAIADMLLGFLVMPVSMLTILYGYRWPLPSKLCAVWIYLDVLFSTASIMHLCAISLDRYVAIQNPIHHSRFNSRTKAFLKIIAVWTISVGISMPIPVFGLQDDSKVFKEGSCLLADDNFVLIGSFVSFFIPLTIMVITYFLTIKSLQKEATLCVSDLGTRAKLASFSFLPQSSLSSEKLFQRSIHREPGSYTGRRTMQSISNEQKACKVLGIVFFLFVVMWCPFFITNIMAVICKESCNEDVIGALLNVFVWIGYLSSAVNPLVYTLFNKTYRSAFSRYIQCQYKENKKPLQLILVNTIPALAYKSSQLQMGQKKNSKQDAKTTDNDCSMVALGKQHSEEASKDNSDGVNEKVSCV

Row | Structure (SMILES) | EC50 [µM]
25 | COc1cc(C)c2c(ccn2C[C@@H](C)N(C)C)c1 [Example 65, (R)-1-(5-methoxy-7-methyl-1H-indol-1-yl)-N,N-dimethylpropan-2-amine] | > 10
26 | C[C@H](Cn1ccc2c(F)c(F)ccc21)N(C)C [Example 67, (R)-1-(4,5-difluoro-1H-indol-1-yl)-N,N-dimethylpropan-2-amine] | > 10
27 | C[C@H](Cn1ccc2cc(F)c(F)cc21)N(C)C [Example 68, (R)-1-(5,6-difluoro-1H-indol-1-yl)-N,N-dimethylpropan-2-amine] | > 10
28 | C[C@H](Cn1ccc2cc(F)cc(F)c21)N(C)C [Example 69, (R)-1-(5,7-difluoro-1H-indol-1-yl)-N,N-dimethylpropan-2-amine] | > 10

System: rat cortical neurons
Assay: Neurite outgrowth assay
Assay type: cell-based
Conditions: Cortical neurone, 1 hour treatment at DIV 4, analysed DIV 7, fold vs DMSO control, read-out: Neurite Average Length @ 10 μM
Text: Neurite outgrowth assay. Changes in the pattern of neurite outgrowth have been implicated in neurodegenerative disorders as well as traumatic injuries. The discovery of new compounds that can positively affect neuritogenesis are important for developing new therapeutics for neurological diseases. Measurement of neurite outgrowth of rat cortical neurons using an automated image-based assay was used to determine the neuroplastic effects of the compounds of the present invention. In some embodiments, a compound of the present invention increases the pattern of neurite outgrowth. In some embodiments, a compound of the present invention increases neurite average length compared to a control. In some embodiments, a compound of the present invention increases neurite branch points compared to a control. In some embodiments, a compound of the present invention increases neurite average length and neurite branch points compared to a control.
Neurite Outgrowth Assay. Rat cortical neurons (20,000 cells/well) were freshly isolated from embryonic day 18 rats and cultured in Neurobasal Medium (+B27). The cultured cells were plated in 96 well-plates (avoiding external wells). At DIV 4, the neurons were treated with compound or control (10 μM) for 1 hour followed by complete washout of the compound. At DIV 7, the neurons were analyzed. The experiments were performed in triplicate. Neurite outgrowth was measured analyzing the following parameters: Number of Cell Bodies, total neurite length (pixels), Root Count, Segments, Extremities Count and node points. Changes in the pattern of neurite outgrowth of the neurons were analyzed by immunocytochemistry against β-III-tubulin. Pictures were acquired by the CellInsight CX7 from Thermo Fisher and analyzed using its software. Results generated in the equipment were maximum neurite length, extremity count, root count, dendrite branch points, and total neurite length. The results were compared to DMSO control, representing the fold-change in neuronal outgrowth.

Row | Structure (SMILES) | fold induction at 10 µM
29 | COc1cc(C)c2c(ccn2C[C@@H](C)N(C)C)c1 [Example 65, (R)-1-(5-methoxy-7-methyl-1H-indol-1-yl)-N,N-dimethylpropan-2-amine] | 1.5 to 3
30 | C[C@H](Cn1ccc2c(F)c(F)ccc21)N(C)C [Example 67, (R)-1-(4,5-difluoro-1H-indol-1-yl)-N,N-dimethylpropan-2-amine] | 1.5 to 3
31 | C[C@H](Cn1ccc2cc(F)c(F)cc21)N(C)C [Example 68, (R)-1-(5,6-difluoro-1H-indol-1-yl)-N,N-dimethylpropan-2-amine] | 1.5 to 3
32 | C[C@H](Cn1ccc2cc(F)cc(F)c21)N(C)C [Example 69, (R)-1-(5,7-difluoro-1H-indol-1-yl)-N,N-dimethylpropan-2-amine] | 1.5 to 3

Same assay, conditions: Cortical neurone, 1 hour treatment at DIV 4, analysed DIV 7, fold vs DMSO control, read-out: Neurite Branch Points: @ 10 μM

Row | Structure (SMILES) | fold induction at 10 µM
33 | COc1cc(C)c2c(ccn2C[C@@H](C)N(C)C)c1 [Example 65, (R)-1-(5-methoxy-7-methyl-1H-indol-1-yl)-N,N-dimethylpropan-2-amine] | 1.5 to 3
34 | C[C@H](Cn1ccc2c(F)c(F)ccc21)N(C)C [Example 67, (R)-1-(4,5-difluoro-1H-indol-1-yl)-N,N-dimethylpropan-2-amine] | > 3
35 | C[C@H](Cn1ccc2cc(F)c(F)cc21)N(C)C [Example 68, (R)-1-(5,6-difluoro-1H-indol-1-yl)-N,N-dimethylpropan-2-amine] | > 3
36 | C[C@H](Cn1ccc2cc(F)cc(F)c21)N(C)C [Example 69, (R)-1-(5,7-difluoro-1H-indol-1-yl)-N,N-dimethylpropan-2-amine] | > 3

Reference: US11254640B2, “N-substituted indoles and other heterocycles for treating brain disorders” (The Regents of the University of California, priority 2019, dated 2022)
